Experimental data published in US12552846B2, “Modified BCL9 mimetic peptides” (Sapience Therapeutics, Inc., priority 2019, dated 2026).
Square brackets hold non-standard residues; d marks the D form. Peptide text beside a SMILES is read from it. * marks the point of attachment. Octanoyl = CCCCCCCC(=O)*

Test system: HL60 promyelocytic leukemia cells
Assay: Cytotoxicity assay in HL60 cells (Annexin V FITC / PI flow cytometry)
Type: cell-based
Conditions: 48 hours; for EC50: 0-80 μM, % Viability (Annexin V low, PI low)
Procedure: We examined the cytotoxicity of peptides BCL-26 and BCL-27 using an assay in HL60 promyelocytic leukemia cells. HL60 PML suspension cells were set at a density of 3.5×10^3 cells/well in 150 μL of RPMI+1.5% fetal bovine serum (FBS) in a 96 well dish. BCL-26 or BCL-27, reconstituted at a concentration of 10 mg/mL in 20 mM His, pH 7.5, was added to each well at a volume of 50 μL to a final concentration range of 0-80 μM. Cells were incubated with peptide for 48 hours at 37° C. Cell viability was quantified by flow cytometry using abcam Annexin V FITC apoptosis detection kit. Briefly, cells were washed with PBS and resuspended in 1× assay buffer containing Annexin V FITC and propidium iodide (PI). Annexin V detects apoptotic cells, and PI stains dead cells. After staining, apoptotic cells show green fluorescence, dead cells show red and green fluorescence, and live cells show little or no fluorescence. Cells were selected for analysis based on forward scatter (FSC) vs. side scatter (SSC), and analyzed by BD Accuri C6 Plus flow cytometer to detect Annexin V-FITC binding (Ex=488 nm; Em=530 nm) using FITC signal detector and PI staining by the phycoerythrnn emission signal detector. Percentage of Annexin V^low and PI^low were quantified and presented as % Viability.
We examined the cytotoxicity of additional retro inverso and mixed chirality BCL9 mimetic peptides in HL60 cells using the assay described above.

CC(C)C[C@@H](NC(=O)[C@H](N)Cc1c[nH]c2ccccc12)C(=O)N[C@H](CC(C)C)C(=O)N[C@H](C)C(=O)N[C@H](CCCNC(=N)N)C(=O)N[C@H](CCC(N)=O)C(=O)N[C@H](CC(C)C)C(=O)N[C@H](C)C(=O)N[C@H](CCCNC(=N)N)C(=O)N[C@H](CC(C)C)C(=O)N[C@H](C)C(=O)N[C@H](CCC(N)=O)C(=O)N[C@H](CC(C)C)C(=O)N[C@H](C)C(=O)N[C@H](CCCCN)C(=O)N[C@H](CC(C)C)C(=O)N[C@@H](C(=O)N1CCC[C@@H]1C(=O)N[C@@H](C(=O)O)C(C)C)[C@H](C)O [BCL-82] (H-[dW][dL][dL][dA][dR][dQ][dL][dA][dR][dL][dA][dQ][dL][dA][dK][dL][dT][dP][dV]-OH; N-terminus and C-terminus assumed)
EC50: 2000 to 10000 nM

CC(C)C[C@@H](NC(=O)[C@@H](Cc1c[nH]c2ccccc12)NC(=O)[C@@H](N)Cc1c[nH]c2ccccc12)C(=O)N[C@H](C)C(=O)N[C@H](CCCNC(=N)N)C(=O)N[C@H](CCC(N)=O)C(=O)N[C@H](CC(C)C)C(=O)N[C@H](CCC(=O)O)C(=O)N[C@H](CCCNC(=N)N)C(=O)N[C@H](CC(C)C)C(=O)N[C@H](CCCNC(=N)N)C(=O)N[C@H](CCCNC(=N)N)C(=O)N[C@H](CC(C)C)C(=O)N[C@H](C)C(=O)N[C@H](CCCCN)C(=O)N[C@H](CC(C)C)C(=O)N[C@@H](C(=O)N1CCC[C@@H]1C(=O)N[C@@H](C(=O)O)C(C)C)[C@H](C)O [BCL-97] (H-W[dW][dL][dA][dR][dQ][dL][dE][dR][dL][dR][dR][dL][dA][dK][dL][dT][dP][dV]-OH; N-terminus and C-terminus assumed)
EC50: < 2000 nM

CC(C)C[C@@H](NC(=O)[C@@H](Cc1c[nH]c2ccccc12)NC(=O)[C@@H](N)Cc1c[nH]c2ccccc12)C(=O)N[C@H](C)C(=O)N[C@H](CCCNC(=N)N)C(=O)N[C@H](CCC(N)=O)C(=O)N[C@H](CC(C)C)C(=O)N[C@H](CCC(=O)O)C(=O)N[C@H](CCCNC(=N)N)C(=O)N[C@H](CC(C)C)C(=O)N[C@H](C)C(=O)N[C@H](CCCNC(=N)N)C(=O)N[C@H](CC(C)C)C(=O)N[C@H](C)C(=O)N[C@H](CCCCN)C(=O)N[C@H](CC(C)C)C(=O)N[C@@H](C(=O)N1CCC[C@@H]1C(=O)N[C@@H](C(=O)O)C(C)C)[C@H](C)O [BCL-98] (H-W[dW][dL][dA][dR][dQ][dL][dE][dR][dL][dA][dR][dL][dA][dK][dL][dT][dP][dV]-OH; N-terminus and C-terminus assumed)
EC50: 2000 to 10000 nM

CCCCCCCC(=O)N[C@H](CC(C)C)C(=O)N[C@@H](C(=O)N[C@H](CCCNC(=N)N)C(=O)N[C@H](CCC(N)=O)C(=O)N[C@H](CC(C)C)C(=O)N[C@H](C)C(=O)N[C@H](CCCNC(=N)N)C(=O)N[C@H](CC(C)C)C(=O)N[C@H](C)C(=O)N[C@H](CCC(N)=O)C(=O)N[C@H](CC(C)C)C(=O)N[C@H](C)C(=O)N[C@H](CCCCN)C(=O)N[C@H](CC(C)C)C(=O)N[C@@H](C(=O)N1CCC[C@@H]1C(=O)N[C@@H](C(=O)O)C(C)C)[C@H](C)O)C(C)C [BCL-138] (Octanoyl-[dL][dV][dR][dQ][dL][dA][dR][dL][dA][dQ][dL][dA][dK][dL][dT][dP][dV]-OH; C-terminus assumed)
cytotoxic activity: Lack of cytotoxic activity
EC50: > 80000 nM

CCCCCCCC(=O)N1CCC[C@@H]1C(=O)N[C@H](CO)C(=O)N[C@H](CC(=O)O)C(=O)NCC(=O)N[C@H](CCCNC(=N)N)C(=O)NCC(=O)N[C@H](Cc1c[nH]c2ccccc12)C(=O)N[C@H](Cc1c[nH]c2ccccc12)C(=O)N[C@H](CC(C)C)C(=O)N[C@@H](C(=O)N[C@H](CCCNC(=N)N)C(=O)N[C@H](CCC(N)=O)C(=O)N[C@H](CC(C)C)C(=O)N[C@H](C)C(=O)N[C@H](CCCNC(=N)N)C(=O)N[C@H](CC(C)C)C(=O)N[C@H](C)C(=O)N[C@H](CCC(N)=O)C(=O)N[C@H](CC(C)C)C(=O)N[C@H](C)C(=O)N[C@H](CCCCN)C(=O)N[C@H](CC(C)C)C(=O)N[C@@H](C(=O)N1CCC[C@@H]1C(=O)N[C@@H](C(=O)O)C(C)C)[C@H](C)O)C(C)C [BCL-136a] (Octanoyl-[dP][dS][dD]G[dR]G[dW][dW][dL][dV][dR][dQ][dL][dA][dR][dL][dA][dQ][dL][dA][dK][dL][dT][dP][dV]-OH; C-terminus assumed)
EC50: < 2000 nM

CC(C)C[C@@H](NC(=O)[C@@H](Cc1c[nH]c2ccccc12)NC(=O)[C@H](N)Cc1c[nH]c2ccccc12)C(=O)N[C@H](C)C(=O)N[C@H](CCCNC(=N)N)C(=O)N[C@H](CCC(N)=O)C(=O)N[C@H](CC(C)C)C(=O)N[C@H](C)C(=O)N[C@H](CCCNC(=N)N)C(=O)N[C@H](CC(C)C)C(=O)N[C@H](CCC(N)=O)C(=O)N[C@H](CCC(N)=O)C(=O)N[C@H](CC(C)C)C(=O)N[C@H](C)C(=O)N[C@H](CCCCN)C(=O)N[C@H](CC(C)C)C(=O)N[C@@H](C(=O)N1CCC[C@@H]1C(=O)N[C@@H](C(=O)O)C(C)C)[C@H](C)O [BCL-85] (H-[dW][dW][dL][dA][dR][dQ][dL][dA][dR][dL][dQ][dQ][dL][dA][dK][dL][dT][dP][dV]-OH; N-terminus and C-terminus assumed)
EC50: < 2000 nM

CC(C)C[C@@H](NC(=O)[C@@H](Cc1c[nH]c2ccccc12)NC(=O)[C@H](N)Cc1c[nH]c2ccccc12)C(=O)N[C@H](C)C(=O)N[C@H](CCCNC(=N)N)C(=O)N[C@H](CCC(N)=O)C(=O)N[C@H](CC(C)C)C(=O)N[C@H](CCC(=O)O)C(=O)N[C@H](CCCNC(=N)N)C(=O)N[C@H](CC(C)C)C(=O)N[C@H](C)C(=O)N[C@H](CCCNC(=N)N)C(=O)N[C@H](CC(C)C)C(=O)N[C@H](C)C(=O)N[C@H](CCCCN)C(=O)N[C@H](CC(C)C)C(=O)N[C@@H](C(=O)N1CCC[C@@H]1C(=O)N[C@@H](C(=O)O)C(C)C)[C@H](C)O [BCL-86] (H-[dW][dW][dL][dA][dR][dQ][dL][dE][dR][dL][dA][dR][dL][dA][dK][dL][dT][dP][dV]-OH; N-terminus and C-terminus assumed)
EC50: < 2000 nM

CC(C)C[C@@H](NC(=O)[C@@H](Cc1ccccc1)NC(=O)[C@H](N)Cc1c[nH]c2ccccc12)C(=O)N[C@H](C)C(=O)N[C@H](CCCNC(=N)N)C(=O)N[C@H](CCC(N)=O)C(=O)N[C@H](CC(C)C)C(=O)N[C@H](C)C(=O)N[C@H](CCCNC(=N)N)C(=O)N[C@H](CC(C)C)C(=O)N[C@H](C)C(=O)N[C@H](CCC(N)=O)C(=O)N[C@H](CC(C)C)C(=O)N[C@H](C)C(=O)N[C@H](CCCCN)C(=O)N[C@H](CC(C)C)C(=O)N[C@@H](C(=O)N1CCC[C@@H]1C(=O)N[C@@H](C(=O)O)C(C)C)[C@H](C)O [BCL-81] (H-[dW][dF][dL][dA][dR][dQ][dL][dA][dR][dL][dA][dQ][dL][dA][dK][dL][dT][dP][dV]-OH; N-terminus and C-terminus assumed)
EC50: 2000 to 10000 nM

CC(C)C[C@@H](NC(=O)[C@@H](CCCNC(=N)N)NC(=O)[C@@H](C)NC(=O)[C@@H](CC(C)C)NC(=O)[C@@H](CCC(N)=O)NC(=O)[C@@H](CCCNC(=N)N)NC(=O)[C@@H](CCC(=O)O)NC(=O)[C@@H](CC(C)C)NC(=O)[C@@H](Cc1c[nH]c2ccccc12)NC(=O)[C@H](N)Cc1c[nH]c2ccccc12)C(=O)N[C@H](C)C(=O)N[C@H](CCC(N)=O)C(=O)N[C@H](CC(C)C)C(=O)N[C@H](C)C(=O)N[C@H](CCCCN)C(=O)N[C@H](CC(C)C)C(=O)N[C@@H](C(=O)N1CCC[C@@H]1C(=O)N[C@@H](C(=O)O)C(C)C)[C@H](C)O [BCL-83] (H-[dW][dW][dL][dE][dR][dQ][dL][dA][dR][dL][dA][dQ][dL][dA][dK][dL][dT][dP][dV]-OH; N-terminus and C-terminus assumed)
EC50: 2000 to 10000 nM

CC(C)C[C@@H](NC(=O)[C@@H](Cc1c[nH]c2ccccc12)NC(=O)[C@H](N)Cc1c[nH]c2ccccc12)C(=O)N[C@H](C)C(=O)N[C@H](CCCNC(=N)N)C(=O)N[C@H](CCC(N)=O)C(=O)N[C@H](CC(C)C)C(=O)N[C@H](CCC(=O)O)C(=O)N[C@H](CCCNC(=N)N)C(=O)N[C@H](CC(C)C)C(=O)N[C@H](C)C(=O)N[C@H](CCCCN)C(=O)N[C@H](CC(C)C)C(=O)N[C@H](C)C(=O)N[C@H](CCCCN)C(=O)N[C@H](CC(C)C)C(=O)N[C@@H](C(=O)N1CCC[C@@H]1C(=O)N[C@@H](C(=O)O)C(C)C)[C@H](C)O [BCL-90] (H-[dW][dW][dL][dA][dR][dQ][dL][dE][dR][dL][dA][dK][dL][dA][dK][dL][dT][dP][dV]-OH; N-terminus and C-terminus assumed)
EC50: 2000 to 10000 nM

CC(C)C[C@@H](NC(=O)[C@@H](CCCNC(=N)N)NC(=O)[C@@H](C)NC(=O)[C@@H](CC(C)C)NC(=O)[C@@H](CCC(N)=O)NC(=O)[C@@H](CCCNC(=N)N)NC(=O)[C@H](NC(=O)[C@@H](CC(C)C)NC(=O)[C@@H](Cc1c[nH]c2ccccc12)NC(=O)[C@H](Cc1c[nH]c2ccccc12)NC(=O)CNC(=O)[C@@H](CCCNC(=N)N)NC(=O)CNC(=O)[C@@H](CC(=O)O)NC(=O)[C@@H](CO)NC(=O)[C@H]1CCCN1)C(C)C)C(=O)N[C@H](C)C(=O)N[C@H](CCC(N)=O)C(=O)N[C@H](CC(C)C)C(=O)N[C@H](C)C(=O)N[C@H](CCCCN)C(=O)N[C@H](CC(C)C)C(=O)N[C@@H](C(=O)N1CCC[C@@H]1C(=O)N[C@@H](C(=O)O)C(C)C)[C@H](C)O [BCL-139] (H-[dP][dS][dD]G[dR]GW[dW][dL][dV][dR][dQ][dL][dA][dR][dL][dA][dQ][dL][dA][dK][dL][dT][dP][dV]-OH; N-terminus and C-terminus assumed)
EC50: < 2000 nM
